Literature values in US9603795B2, “Composite for preparing a transdermal delivery device and method for synthesizing the composite thereof” (City University of Hong Kong, priority 2014, dated 2017).

Conditions: oral administration

amount absorbed in the upper intestinal tract: 1-2%
Structure (SMILES): OC[C@H]1O[C@@H]2O[C@H]3[C@H](O)[C@@H](O)[C@@H](O[C@H]4[C@H](O)[C@@H](O)[C@@H](O[C@H]5[C@H](O)[C@@H](O)[C@@H](O[C@H]6[C@H](O)[C@@H](O)[C@@H](O[C@H]7[C@H](O)[C@@H](O)[C@@H](O[C@H]8[C@H](O)[C@@H](O)[C@@H](O[C@H]1[C@H](O)[C@H]2O)O[C@@H]8CO)O[C@@H]7CO)O[C@@H]6CO)O[C@@H]5CO)O[C@@H]4CO)O[C@@H]3CO [β-CD, β-cyclodextrin]
